Data as given in a melting point compilation (Tetko et al.; mined from patent text by program, amines drawn as free bases though some values may be those of a salt).

SMILES	melting point
CC(C)(C)OC(=O)C1CC(Cc2ccccc2)C(=O)N1C(=O)OC(C)(C)C (stereo not drawn)	125 °C
Cc1ncc(CNC(=O)c2sc(N3CCN(CC4CC4)C3=O)nc2C)s1	165 to 167 °C
CC1(C)Cc2c(c(N3CCCC3)nc3sc4c(NCc5ccncc5)ncnc4c23)CO1	228 to 229 °C
COC(=O)c1cccn1CC(I)=C(I)I	88 to 90 °C
O=C1c2ccccc2N2CCCN3CCN1C32 (stereo not drawn)	144 to 146 °C
N[C@@]1(C(=O)O)C[C@H](NC(=O)Nc2c(Cl)cccc2Cl)[C@H]2[C@H](C(=O)O)[C@H]21 (relative stereo)	> 250 °C
Cc1ccc(C(C)n2[nH]c(C)cc2=O)cc1 (stereo not drawn)	144 to 146 °C
Nc1c(F)c(F)c(F)c2c1c(=O)c(C(=O)O)cn2C1CC1	269 to 271 °C
Cc1nc[nH]c1CSCCN=C(NC#N)NCCCc1c[nH]cn1	140 to 142 °C
CC(C)CC(=Cc1ccccc1)C(=O)O	66 to 67.5 °C
CN(C=C(S(=O)(=O)c1ccccc1)S(=O)(=O)c1ccccc1)c1ccc(Cl)cn1	205 to 206 °C
CN(C)c1ccc(-c2cccc3c2C2(COc4cc5c(cc42)OCCO5)C(=O)N3Cc2ccccn2)cn1 (stereo not drawn)	187 to 188 °C
C=CCc1c(O)ccc2c1C(CCNC(=O)CC)CN2C=O (stereo not drawn)	173 to 175 °C
COC(=O)c1ccc(F)cc1C#N	92 to 93 °C
O=C1CCc2ccc(OCCCCN3CCN(c4cccc5c4CCCC5=O)CC3)nc2N1	169 to 170 °C
CC(=O)Nc1ccc(Cl)cc1C(=O)c1ccccc1	114 °C
CCOC(=O)c1cc2c(nc1CCl)CCCCC2	81 to 82 °C
CNc1cc(NS(=O)(=O)c2ccc(N)cc2)nc(N(C)C)n1	253 to 254 °C
CCCCCCCCCCCCSC(=O)CS(=O)(=O)Nc1c(C(C)C)cccc1C(C)C	58 to 60 °C
CCOCc1nc2c(N)nc(C)c(C)c2n1CCCCS(=O)(=O)N(C)C	158 to 160 °C
O=C1CCc2cc(C(=O)[C@H]3CC[C@H]3C(=O)O)ccc2N1 (relative stereo)	155 to 158 °C
CSc1nccc(Oc2ccc(NC(=O)c3cc(F)cc(N4CCCCC4)c3)c3ccccc23)n1	130 to 132 °C
Cc1nc(-c2ccc(C#CC3(O)CN4CCC3CC4)cc2)no1 (single isomer, unassigned; (-))	211 to 212 °C
NC(CN1CCC(=C2c3ccccc3C=Cc3ccccc32)CC1)C(=O)NCC(=O)O (stereo not drawn)	175 to 176 °C
NS(=O)(=O)c1ccsc1	187 to 190 °C
CCOC(=O)/C=C/c1ccc(N2CCC(=O)CC2)cc1	96 to 98 °C
CC(C)(C)NC(=O)[C@@H]1C[C@H](Cl)CN1C(=O)[C@@H](O)[C@H](Cc1ccccc1)NC(=O)[C@H](CC(N)=O)NC(=O)OCc1ccccc1	103 to 107 °C
C=Cc1ccc(C#N)cn1	29 to 30 °C

SMILES	melting point
CCCCCCCCN(C[C@H]1CC[C@@H](CN(CCCCCCCC)C(=O)Nc2ccc(N(C)C)cc2)CC1)C(=O)Nc1ccc(N(C)C)cc1	105 to 107 °C
N#Cc1ccc(NC(=O)c2ccccc2SSc2ccccc2C(=O)Nc2ccc(C#N)cc2)cc1	239 to 241 °C
CCOC(=O)C(=O)Nc1cc(NC(=O)C(=O)OCC)c(OC)nc1OC	170 to 173 °C
Cc1cccc2c(N3CCS(=O)CC3)nc(N3CCNCC3)cc12	201 to 203 °C
CCCCc1ccc(NC=NO)c(C)c1	132 to 134 °C
CCOC(=O)C(=O)N(CCOS(C)(=O)=O)N=Cc1ccccc1	93 to 95 °C
C#CCOC(=O)C1=C(C)NC(C)=C(C(=O)OCC)C1c1ccccc1C(F)(F)F (stereo not drawn)	130 °C
O=c1cc(COC2CCCCO2)occ1OCCCCCBr (stereo not drawn)	140 °C
COC(=O)c1ccccc1S(=O)(=O)NCC#N	110 °C
Cc1ccc(-c2c([N+](=O)[O-])oc3ccccc23)cc1C	125 to 133 °C
Cc1nc2c(O[C@@H]3c4ccccc4CC[C@H]3O)cccn2c1CC#N (relative stereo)	154 to 155 °C
CCOC(=O)c1cn(C2CC2)c2occc2c1=O	200 to 201 °C
CSC(Oc1cc2cc(Br)cnc2cc1C)C(=O)NC(C)(C)C (stereo not drawn)	132 to 134 °C
Cc1nc(-c2cccc(-n3cnc4cc(I)ccc43)c2)cs1	163 to 164 °C
CCOc1cc2c(cc1OC(C)=O)OCS2	131 °C
O=S(=O)(c1ccccc1)c1ncc(Br)cn1	103 °C
CCOC(=O)C(=C1SC=C(O)S1)S(C)(=O)=O	145 to 147 °C
CCN1CC([N+](=O)[O-])=C(N(C)C)N(Cc2cccnc2)C1	97 to 98 °C
CNc1c(S(=O)(=O)C(F)(F)F)c(C)nn1-c1c(Cl)cc(C(F)(F)F)cc1Cl	139 to 140 °C
O=C1Nc2ccc(CN3C(=O)CSC3=O)c(F)c2C1=Cc1cc(CN2CCOCC2)c[nH]1	246 to 248 °C
CCOc1ccc(C(F)(F)F)cc1-c1cccn2nc(Nc3ccc4c(c3)CCN(CCS(C)(=O)=O)CC4)nc12	105 to 109 °C
COC(=O)c1cccc(C2CCCS2)c1N (stereo not drawn)	75 to 79 °C
CCc1nn2c(c1Oc1cc(Cl)cc(Cl)c1)C(=O)NCC2	220 to 223 °C
CC(=O)OCc1nc([N+](=O)[O-])c(C#N)n1C	92 to 93 °C
COc1cc2c(C)c(C)sc2c(Cl)c1Cl	159 to 160 °C
CC(C)Oc1n[nH]c2nc(Oc3ccc(F)cc3F)ncc12	144 to 145 °C
Cc1cc(NC(=O)N(C)C)cc(C)c1S(=O)(=O)C[N+](=O)[O-]	205 to 206 °C

Other lines, results leading:

melting point	SMILES
119 to 120 °C	CC(=O)Nc1ccc(C(=O)c2c(N)sc3c2CCN(Cc2ccccc2)C3)cc1
93 to 95 °C	COc1ccc2c(-c3ccc(OC)c(C)c3)noc2c1
89 to 98 °C	COc1cc(CC(=O)O)ccc1OCCNC(=O)C1Cc2ccccc2N1S(=O)(=O)c1ccc(-c2cccc(C(F)(F)F)c2)cc1 (stereo not drawn)
85 to 86 °C	c1ccc(-c2cc3ccc4ccccc4n3n2)cc1
142 to 144 °C	O=C(O)c1sc(C(F)(F)F)cc1OCc1ccccc1
161 to 162 °C	CC(C(N)=O)c1ccc2c(c1)Sc1ncccc1CC2=O (stereo not drawn)
262 to 263 °C	COc1cc(Nc2c(C#N)cnc3cc(-c4cccc(NC(C)=O)c4)ccc23)c(Cl)cc1Cl
66 to 68 °C	CCCCS(=O)(=O)N1C(SCc2ccc(OC)cc2)=NC(C)(c2cccc([N+](=O)[O-])c2)C(C)(C(=O)OCC)C1c1cccc([N+](=O)[O-])c1 (stereo not drawn)
103 to 104 °C	CC(O)(c1ccccc1)c1cc(Oc2ccc(Cl)cc2)ccc1O (stereo not drawn)
260 °C	CC(=O)NCCCn1cc(-c2cc3nccnc3[nH]2)c2ccccc21
201 to 203 °C	CCOC(=O)c1cn(C(c2ccccc2)(c2ccccc2)c2ccccc2)nn1
126 to 127 °C	CCCc1c(OCCCOc2ccc(N)cc2)ccc2c1OC(CCC(=O)OCC)(CCC(=O)OCC)CC2=O
77 to 78 °C	CCOC(=O)Cc1ccc(-c2ccc(-c3ccccc3)cc2)o1
121 to 122 °C	N/C(=C1/Sc2ccccc2C1=O)c1ccccc1
210 to 213 °C	CCOc1cc2cc3c(c(-c4ccncc4)c2cc1OCC)C(=O)NC3=O
170 to 173 °C	COC(=O)c1nc(N)ccc1O
156 to 157 °C	Cc1ccc(C(=O)Nc2ccc(CN(C)C)c(C(F)(F)F)c2)cc1Br
142 to 144 °C	COc1ccc(C(=O)CCC(=O)O)c(Cl)c1Cl
284 to 286 °C	O=S1(=O)N=C(c2ccc(Cl)cc2)N(c2cc(Cl)cc(Cl)c2)c2ccncc21
167 to 170 °C	COc1ccc(CNc2nc(SC)nc(OC)c2C(=O)O)cc1Cl
174 to 176 °C	CCOC(=O)c1ccc(-c2cc(O)c(C(CC(C)C)SC3CCCC3)c(=O)o2)cc1 (stereo not drawn)
215 to 217 °C	CCOC(=O)C1=C(COCCn2c(C)nc(C)c2C)NC2=C(C(=O)OC2)C1c1ccccc1Cl (stereo not drawn)

melting point	SMILES
92 to 96 °C	O=C(c1cccc(C(F)(F)F)c1)c1ncccc1C(O)=NNc1c(Cl)cc(C(F)(F)F)cc1Cl
193 °C	Nc1ccc(C(=O)Nc2ccc(Cl)nc2)cc1F
87 to 88 °C	O=C(OCCOc1ccc(OCCO)cc1)c1ccc(O)c(Cl)c1
229 to 231 °C	O=C(O)Cc1nn(-c2ccccn2)c2[nH]c3ccccc3c(=O)c12
86.5 to 87.5 °C	CC(C)n1nc(C(Cl)C(=O)c2ccccc2)ccc1=O (stereo not drawn)
171 to 172 °C	CC(=O)OCc1ccc(-c2nc(=O)c3ccccc3s2)cn1
188 to 190 °C	O=C(O)COc1cc(Cl)ccc1C(=O)NCc1c(F)cccc1F
192 to 193 °C	CS(=O)(=O)c1ccc(-n2cncc2-c2ccc(Cl)cc2)cc1
108 to 110 °C	CC(=O)Nc1cc(OCc2ccc3c(c2)OCO3)c(C(=O)CCCCCl)cc1Cl
60 °C	COCCOCOc1ccc2cc(C(=O)N(C)Cc3cccc(-c4ccc(Nc5cccc(C(=O)O)c5)cc4)c3)ccc2c1
174 to 176 °C	COC(=O)CCc1ccc(-n2cn[nH]c2=O)cc1
119 to 120 °C	Cc1cc(NS(=O)(=O)c2ccccc2)cnc1CCCC#N
186 to 188 °C	COc1ccc(-c2ccc(C(C)=NOCCOc3ccc(CC4SC(=O)NC4=O)cc3)cc2)c(OC)c1 (stereo not drawn)
166 to 168 °C	O=c1cc2c(nn1-c1ccc(Cl)cc1)-c1cccc(Cl)c1SCC2
223 to 225 °C	CC(C)CC(=O)Nc1cccc(-c2ccnc3c(-c4cc(Cl)cc(Cl)c4)cnn23)c1
248 to 249 °C	O=C(CCCl)Nc1cccc2c1C(=O)c1c(NC(=O)CCCl)cccc1C2=O
221 to 223 °C	O=C(O)C(Cc1ccccc1)Oc1ccc2cc(-c3nc(-c4ccccc4)sc3Br)ccc2c1Br (stereo not drawn)
202 to 205 °C	Cc1ccc(C(=O)Nc2ccccc2)cc1NC(=O)c1cc(Cl)cc(Cl)c1
142 to 143 °C	Cc1nn(-c2ccc(C(F)(F)F)cn2)cc1COc1cccc(CC(=O)O)c1
83 °C	CCCCOC(=O)NC(=O)C(C)(c1ccccc1)c1ccccc1
122 °C	C=CCOc1cc(O)c2c(=O)cc(-c3ccc(OC)c(OCC=C)c3)oc2c1
